According to US20040122096A1, “Use of inhibitors of the cellular Na+/H+ exchanger (NHE) for preparing a medicament for normalizing serum lipids” (Hoechst Aktiengesellschaft, priority 1996, published 2004):

Tested on: male New Zealand white rabbits
Experiment: Serum total cholesterol and lipoprotein fractions in rabbits after 30 days feeding
Format: in vivo, rabbit
Details: mean ± SEM
Excerpt: This antihyperlipidemic action is shown for an NHE inhibitor, 4-isopropyl-3-methylsulfonylbenzoylguanidine methanesulfonate (Hoe 642), in the following table, male New Zealand white rabbits (n=28) having a weight of 3-4 kg being used and divided into four groups of 7 animals in each case randomized as described below: 1) standard rabbit feed (®Altromin 2834), 2) atherogenic diet having a content of 0.25% cholesterol and 3% coconut oil, 3) standard rabbit feed+Hoe 642 (0.1%), 4) atherogenic diet+Hoe 642 (0.1%). Blood samples were taken once after 30 days feeding by puncture of the auricular artery. Serum was obtained from the blood. The total cholesterol was measured from the serum by means of the CHOD (cholesterol oxidase)-PAP method (Merckotest, Merck Diagnostics, E. Merck, 64271 Darmstadt, Germany). The separation of the lipoproteins was carried out, likewise from the serum, by FPLC (fast protein liquid chromatography) method (März et al. 1993, Clin. Chem. 39/11:2276-2281).

[1] = atherogenic diet (0.25% cholesterol, 3% coconut oil) + Hoe 642 0.1%
[2] = normal diet (standard rabbit feed) + Hoe 642 0.1%

For `CC(C)c1ccc(C(=O)NC(=N)N)cc1S(C)(=O)=O` [HOE 642, 4-isopropyl-3-methylsulfonylbenzoylguanidine methanesulfonate], the “LDL (serum cholesterol fraction)” value [1] was 2.1 ± 0.2 mmol/L, the “Total cholesterol (serum)” value [1] was 7.95 ± 0.89 mmol/L and the “VLDL (serum cholesterol fraction)” value [1] was 4.6 ± 0.6 mmol/L. The “LDL (serum cholesterol fraction)” value [2] was 0.23 ± 0.04 mmol/L, the “Total cholesterol (serum)” value [2] was 0.69 ± 0.1 mmol/L and the “VLDL (serum cholesterol fraction)” value [2] was 0.05 ± 0.02 mmol/L.
